Experimental data taken from patent US9045505B2, “Nitric oxide donors” (University of Otago, priority 2006, dated 2015).

Columns and labels:
[1] = system: liver mitochondria; experiment: S-nitrosation of mitochondrial protein thiols (chemiluminescence SNO assay); type: biochemical, rat; settings: 500 μM
Method: FIG. 11 is a series of graphs showing S-nitrosation of mitochondrial thiols by MitoSNAP. (a) Time course of S-nitrosation of mitochondrial proteins by MitoSNAP. Liver mitochondria (1 mg protein) were incubated in 1 ml KCl buffer supplemented with rotenone and succinate in the presence of 5 μM MitoSNAP. At various times mitochondria were treated with 10 mM N-ethylmaleimide (NEM), isolated by centrifugation and the S-nitrosothiol content assessed. Data are of a typical experiment showing means±range of duplicate samples for each time point, each measured in duplicate. The experiment was repeated twice. (b) S-nitrosation of mitochondrial proteins by different concentrations of MitoSNAP and SNAP. Aliquots of liver mitochondria were incubated with the indicated concentrations of MitoSNAP or SNAP for […] in the presence or absence of 500 nM FCCP and then assessed for S-nitrosothiol content as in (a). For the +NEM sample, 10 mM NEM was added to the mitochondria and 1 min later 5 μM MitoSNAP was added and incubated for a further 2.5 min. Data are of a typical experiment showing means±range of duplicate samples for each time point, each measured in duplicate. The experiment was repeated twice. (c) S-nitrosation of cellular protein thiols by MitoSNAP. C2C12 cells were preincubated for 5 min in 2 ml cell culture medium containing either 20 μM FCCP or DMSO carrier, then 5 μM MitoSNAP or SNAP was added. After further incubation for 5 min at 37° C. in the dark, the medium was removed and the content of S-nitrosated proteins was measured. Data are means±range of the duplicate determinations. […] (d) S-nitrosation of a mitochondria-enriched cell subfraction. C2C12 cells were preincubated for 5 min in cell culture medium containing either 20 μM FCCP or dimethylsulfoxide (DMSO) carrier, then 5 μM MitoSNAP was added. After 5 min at 37° C. in the dark, the medium was removed and the cells were processed to isolate a mitochondria-enriched fraction and S-nitrosated protein was then determined Data are mean±sem of triplicate determinations (+MitoSNO1), or mean±range of duplicate determinations (+FCCP). (e & f) Visualisation of S-nitrosated mitochondrial proteins by copper/ascorbate-dependent labelling of thiols with a Cy3 fluorophore. Liver (e) or heart (f) mitochondria (1 mg protein) were incubated in 1 ml KCl buffer supplemented with rotenone and succinate in the presence of no additions, 10 μM MitoSNAP or 500 μM diamide for 5 min. S-nitrosated thiols were then selectively tagged with Cy3 maleimide and protein (10 μg) was then separated on a 12.5% SDS PAGE gel which was stained with coomassie blue and scanned for Cy3 fluorescence. The Cy3 fluorescence (SNO) and coomassie staining (coomassie) of each gel is shown.
FIG. 13 is a trace and graph showing limited S-nitrosation of mitochondria by DetaNONOate. […] Where indicated 500 μM DetaNONOate was added and the concentration of NO^• was measured over time, before 5 μM OxyHb was added. […] Then protein pellets were resuspended and processed for analysis of protein S-nitrosothiols. Control incubations in the presence of 10 mM NEM were also carried out. Data are means±range of two independent experiments each being the average of four mitochondrial incubations.
Nitrite, nitric oxide and S-nitrosothiol measurements. Nitrite was analyzed by the Griess assay (Molecular Probes). Nitric oxide was measured using an NO^• electrode (World Precision Instruments Ltd, UK) connected to an Apollo 4000 Free Radical Analyser. The electrode was inserted into a stirred, sealed 3 ml chamber with a Clark type O2 electrode (Rank Brothers, UK) built into its base and was thermostatted at 37° C. The NO^• electrode was calibrated by adding SNAP to argon-purged, saturated CuCl. OxyHb was prepared by reduction of bovine methemoglobin with sodium dithionite.

[2] = system: rat liver mitochondria; experiment: Membrane potential-dependent uptake into isolated mitochondria (TPP-selective electrode); type: biochemical
Method: FIG. 8 is a trace showing the uptake of MitoSNAP and MitoNAP by energized mitochondria measured using an ion-selective electrode. For (a) and (b) mitochondria (2 mg protein/ml) were incubated in KCl buffer supplemented with rotenone in a stirred 3 ml chamber thermostatted at 37° C. and shielded from ambient light. An electrode selective for the TPP cation was inserted and calibrated by five sequential 1 μM additions of MitoNAP (a) or MitoSNAP (b). Succinate (10 mM) was then added to energize the mitochondria, followed by the uncoupler FCCP (0.5 μM). Rapid uptake of MitoNAP by energized mitochondria was observed and this was reversed by abolishing the membrane potential with the uncoupler FCCP (a). Energised mitochondria also rapidly accumulated MitoSNAP (b). However, in contrast to MitoNAP, uncoupling apparently led to only partial release of the accumulated MitoSNAP (b). This apparent incomplete release of MitoSNAP on uncoupling is presumably because MitoSNAP is converted to MitoNAP within mitochondria and this generates a different response from the electrode.
(§1) Mitochondrial incubations were usually in KCl buffer (120 mM KCl, 10 mM HEPES, 1 mM EGTA, 100 μM N,N-bis(2-bis[carboxymethyl]aminoethyl) glycine (DTPA) and 10 μM neocuproine, pH 7.2) with 10 mM succinate and 4 μg/ml rotenone in the dark at 37° C., unless stated otherwise. An electrode selective for the TPP moiety of MitoSNAP and MitoNAP was made and used as described previously (Asin-Cayuela, J., Manas, A. R., James, A. M., Smith, R. A. & Murphy, M. P. Fine-tuning the hydrophobicity of a mitochondria-targeted antioxidant. FEBS Letts. 571, 9-16 (2004)). Respiration rates were measured in a Clark type O2 electrode (Rank Brothers, UK). To measure GSH and GSSG, mitochondria (1 mg protein/ml) were incubated with 0-10 μM MitoSNO1 or MitoNAP for 10 min, pelleted by centrifugation and the GSH and GSSG contents assessed by the recycling assay (Scarlett, J. L., Packer, M. A., Porteous, C. M. & Murphy, M. P. Alterations to glutathione and nicotinamide nucleotides during the mitochondrial permeability transition induced by peroxynitrite. Biochem. Pharmacol. 52, 1047-1055 (1996)). The measurement of exposed mitochondrial protein thiols is described below.
Rat liver mitochondria (1 mg protein/ml) in KCl buffer was incubated at 37° C. with 5 μM MitoSNO. 1 μM additions of MitoSNO were made sequentially before addition of 10 mM succinate. 200 nM FCCP was then added to uncouple the mitochondria. The concentrations of O2 and MitoSNO in solution were measured simultaneously using a Clark-type O2 electrode in combination with an ion-selective electrode for triphenylphosphonium cation (TPP^+). […] This can be seen in FIG. 3.
When succinate was added, the mitochondria started respiring and set up a Δψ, which caused a decrease in the MitoSNO concentration, as detected by the ion-selective electrode (FIG. 3). When the mitochondria were uncoupled by FCCP, a concomitant increase in the concentration of MitoSNO, or its derivatives, in the medium was detected by the ion-selective electrode. The amount of MitoSNO taken up into the mitochondria from the trace in FIG. 3 corresponds to ˜2.5 μM of the initial external concentration of 5 μM. Therefore 7.5 nmol MitoSNO have been taken up into 3 mg protein, and as the mitochondrial volume is ˜0.5 μl/mg protein (Brown, G. C. and Brand, M. D. Biochem J., 1985, 225, 399-405), the concentration of MitoSNO within mitochondria is ˜5 mM. This represents a 2000 fold concentration relative to the 2.5 μM present in the external medium, and is consistent with a Nernstian uptake of MitoSNO.

[3] = system: liver or heart mitochondria; experiment: Visualisation of S-nitrosated mitochondrial proteins by Cy3 maleimide labelling; type: biochemical, rat; settings: 10 μM MitoSNAP or 500 μM diamide, 5 min
Method: FIG. 11 is a series of graphs showing S-nitrosation of mitochondrial thiols by MitoSNAP. (a) Time course of S-nitrosation of mitochondrial proteins by MitoSNAP. Liver mitochondria (1 mg protein) were incubated in 1 ml KCl buffer supplemented with rotenone and succinate in the presence of 5 μM MitoSNAP. At various times mitochondria were treated with 10 mM N-ethylmaleimide (NEM), isolated by centrifugation and the S-nitrosothiol content assessed. Data are of a typical experiment showing means±range of duplicate samples for each time point, each measured in duplicate. The experiment was repeated twice. (b) S-nitrosation of mitochondrial proteins by different concentrations of MitoSNAP and SNAP. Aliquots of liver mitochondria were incubated with the indicated concentrations of MitoSNAP or SNAP for […] in the presence or absence of 500 nM FCCP and then assessed for S-nitrosothiol content as in (a). […] Data are of a typical experiment showing means±range of duplicate samples for each time point, each measured in duplicate. […] After further incubation for 5 min at 37° C. in the dark, the medium was removed and the content of S-nitrosated proteins was measured. […] S-nitrosated thiols were then selectively tagged with Cy3 maleimide and protein (10 μg) was then separated on a 12.5% SDS PAGE gel which was stained with coomassie blue and scanned for Cy3 fluorescence. […]

[4] = system: liver mitochondria; experiment: Exposed protein thiols, glutathionylation and GSH/GSSG in liver mitochondria; type: biochemical, rat; settings: mitochondria; MitoSNAP 5 μM
Method: as §1
Small molecules were removed by centrifugation through MicroBioSpin Columns (cut off=6 kDa), the eluate was clarified by centrifugation (2 min at 10,000×g) and protein thiols measured in triplicate by mixing 10 μl sample or GSH standard with 160 μl of 200 μM dithionitrobenzoic acid (DTNB) in 80 mM NaPi, 1 mM EDTA, pH 8 in a 96 well plate and absorbance at 412 nm was measured after 30 min at room temperature and the thiol content determined from the GSH standard curve. The protein concentration was measured in parallel by the bicinchonininc assay using BSA as a standard.
The interaction of MitoSNAP with mitochondrial thiol proteins is likely to initiate a dynamic process that may lead to other protein thiol modifications, such as disulfide formation, glutathionylation, sulfenylation or sulfenylamide formation, in addition to persistent S-nitrosation. To assess these, the content of reactive, solvent-exposed thiols on native liver mitochondrial proteins was measured. […] This is consistent with the finding that the maximum extent of mitochondrial protein S-nitrosation by 5 μM MitoSNAP (˜500 pmol SNO/mg protein; FIG. 11) was only ˜1% of the total number of protein thiols available. A small amount of MitoSNAP binding to mitochondrial thiol proteins through the formation of mixed disulfides was detectable by immunoblotting.

[5] = system: HeLa cells; experiment: Cell hypoxia experiment, extracellular pO2 by fluorescence quenching oximetry; type: cell-based; settings: 1% O2, 30 min incubation, compared to untreated controls
Method: FIG. 10 is a series of traces and graphs showing the effect of MitoSNAP on respiration in cells. (a-d) Jurkat cells (55×10^6 cells) were incubated in PBS supplemented with 25 mM Hepes pH 7.2 (NaOH), 1 mM sodium pyruvate, 10 μM neocuproine and 100 μM DTPA in the stirred 2.5 ml chamber of an oxygen electrode at 37° C. with 5 μM MitoSNAP (a), MitoNAP (b), SNAP (c) or MitoSNAP and FCCP (500 nM) (d). Where indicated 5 μM OxyHb was added. Traces show typical experiments that were repeated at least three times. Sections of the 02 electrode trace where OxyHb was added for (a) and (b) have been expanded 4-fold in the vertical dimension to facilitate inspection. […] Cellular pO2 values, measured by fluorescence quenching oximetry and expressed as mean±sd, are shown. […]
HeLa cells were seeded and grown to 100% confluence with 15 ml medium/dish on 165 cm^2 dishes. […] Extracellular pO2 measurements were taken by fluorescence quenching oximetry (Oxylite-2000; Oxford Optronix). […]
To evaluate the selective uptake of MitoSNAP by mitochondria within cells, the effect of MitoSNAP on respiration by Jurkat cells, a T lymphocyte cell line that grows in suspension, was measured using an O2 electrode (FIG. 10). […] Then the effects of a further 30 min incubation with MitoSNAP, MitoNAP or the mitochondrial inhibitor myxathiazol on the steady-state extracellular pO2 was assessed by fluorescence quenching oximetry (FIG. 10e).

In the case of `NCCN(CCN)/[N+]([O-])=N/O` [Deta-NONOate, 3,3-bis(aminoethyl)-1-hydroxy-2-oxo-1-tri azene, reference compound], the “NO concentration generated compared with 5 μM MitoSNAP” value [1] is reported as “five to ten-fold greater”, the “S-nitrosation less than that caused by 5 μM MitoSNAP” value [1] is reported as roughly 30 fold and the “S-nitrosation of mitochondrial proteins” value ([1]; 5 min) is reported as roughly 20 pmol SNO/mg protein.

With `O=NSCCCC[P+](c1ccccc1)(c1ccccc1)c1ccccc1.[Br-]` [MitoSNO] the “amount taken up into 3 mg protein” value ([2]; 5 μM MitoSNO, succinate) was 7.5 nmol, the “uptake by isolated mitochondria” value ([2]; energized with 10 mM succinate, reversed by FCCP) was “taken up by isolated mitochondria” and the concentration within mitochondria ([2]; mitochondrial volume ~0.5 μl/mg protein) was roughly 5 mM. The “amount taken up into the mitochondria, as part of the initial external concentration of 5 μM” value ([2]; rat liver mitochondria 1 mg protein/ml, 5 μM MitoSNO, succinate) was roughly 2.5 µM, the “effect on mitochondrial respiration” value ([2]; rat liver mitochondria, 5 μM MitoSNO) was “inhibited respiration by NO release” and the “concentration relative to the external medium” value ([2]; relative to 2.5 μM in the external medium) was 2000 fold.

In the case of `CN(C)C(=O)/N=N/C(=O)N(C)C` [diamide, reference compound], the “Cy3 labelling of S-nitrosated proteins” value [3] is reported as “did not label proteins” and the “protein-glutathione mixed disulfides (glutathionylation)” value [4] is reported as “extensive glutathionylation”.

For `CO/C(=C/C(N)=O)[C@H](C)[C@H](/C=C/c1csc(-c2csc([C@@H](C)/C=C/C=C/C(C)C)n2)n1)OC` [myxathiazol, reference compound], the “effect on steady-state extracellular pO2 during hypoxia” value [5] was “increased extracellular O2”.
